According to ChEMBL document CHEMBL1201862, “PubChem BioAssay data set” (2004):
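Test compounds were applied to cells in 96-well plates for 48 hours at 5 doses. At the GI50, growth is halved.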 Activity calls are given as the source filed them. Cut-off read from the data, not from the text of the source: active = GI50 up to about 1.1 µM and inactive = higher. Residues, ends and D or L forms follow the SMILES beside them.

Tests used:
Assay in all cases: NCI-60 cell line screen, 48 h
T47D = tested on: T47D
KM-20L2 = tested on: KM-20L2
HOP-18 = tested on: HOP-18
XF498 = tested on: XF498
LXFL 529 = tested on: LXFL 529
DMS-114 = tested on: DMS-114
M19-MEL = tested on: M19-MEL
DMS-273 = tested on: DMS-273
RXF 631 = tested on: RXF 631

| SMILES | GI50 (T47D) | GI50 (KM-20L2) | GI50 (HOP-18) | GI50 (LXFL 529) | GI50 (DMS-114) | GI50 (M19-MEL) | GI50 (DMS-273) | other results |
| --- | --- | --- | --- | --- | --- | --- | --- | --- |
| CC(=O)NC(CO)C(=O)NC(Cc1ccc(O)cc1)C(=O)NCC(N)=O (stereo not drawn) (Ac-Ser-Tyr-Gly-NH2; configuration not given here) | > 100 µM (inactive) | – | – | – | – | – | – | – |
| CN(C)CCS/C(=N\c1ccccc1)n1cccc1 | – | 32.1 µM (inactive) | > 100 µM (inactive) | 42.7 µM (inactive) | 26.3 µM (inactive) | 83.9 µM (inactive) | 62.5 µM (inactive) | GI50 (XF498): > 100 µM (inactive) |
| CC1(CNCc2ccccc2)CC(CCc2ccccc2)N(C(=O)c2ccc([N+](=O)[O-])cc2)C1Cc1ccc(O)cc1 (centres undefined) | 5.32 µM (inactive) | – | – | – | – | – | – | – |
| CC(=O)OC(C)C1C2=C(C(=O)CC1(C)O)C(=O)c1c(ccc(-c3ccc4c(c3O)C(=O)C3=C(C4=O)C(C(C)OC(C)=O)C(C)(O)CC3=O)c1O)C2=O (centres undefined) | 0.78 µM (active) | 2.04 µM (inactive) | 0.457 µM (active) | 0.428 µM (active) | 0.286 µM (active) | 1.36 µM (inactive) | 1.52 µM (inactive) | – |
| CC(C)OC(=O)[C@@H]1OC(C)(C)O[C@H]1C(=O)OC(C)C | > 100 µM (inactive) | – | – | – | – | – | – | – |
| Nc1ncnc2c1ncn2[C@@H]1C[C@H](NO)[C@@H](O)[C@H]1O | > 100 µM (inactive) | – | – | – | – | – | – | – |
| C=C1C(OC(=O)/C=C/c2ccccc2)CC(OC(C)=O)C2(C)C1CC1CC(OC(C)=O)C(C)=C(C(OC(C)=O)C2OC(C)=O)C1(C)C (centres undefined) | – | > 100 µM (inactive) | > 100 µM (inactive) | 8.36 µM (inactive) | 5.97 µM (inactive) | > 100 µM (inactive) | 4.2 µM (inactive) | GI50 (RXF 631): > 100 µM (inactive) |
| O=[N+]([O-])c1cc([N+](=O)[O-])c(Nn2c3ccccc3c3ccccc32)c([N+](=O)[O-])c1 | 0.641 µM (active) | – | – | – | – | – | – | – |
| O=Cc1[nH]c(=O)[nH]c(=O)c1CCl | > 100 µM (inactive) | – | – | – | – | – | – | – |
| COc1cc(/C=C2\C(=O)N(c3ccc(NC(C)=O)cc3)C(c3ccccc3)S2(=O)=O)cc(OC)c1OC (centres undefined) | 28.6 µM (inactive) | – | – | – | – | – | – | – |
| O=C1C2=Cc3ccccc3OC2(O)Oc2cc(O)ccc21 (centres undefined) | > 100 µM (inactive) | – | – | – | – | – | – | – |
| CCCNCC(O)CNc1ccc(NCC(O)CNCCC)c2c1C(=O)c1ccccc1C2=O (centres undefined) | 4.02 µM (inactive) | – | – | – | – | – | – | – |
| COc1ccc(-c2cn3c(n2)sc2cc(C)ccc23)cc1 | 3.33 µM (inactive) | – | – | – | – | – | – | – |
| CSc1ncnc2c1cnn2Cc1cn(COCCO)nn1 | > 100 µM (inactive) | – | – | – | – | – | – | – |
| C/C(=C\COc1ccc2ccc(=O)oc2c1)C1=CC(=O)C(C)(C)O1 [GEIPARVARIN] | 3.68 µM (inactive) | 3.39 µM (inactive) | 66.7 µM (inactive) | – | 4.19 µM (inactive) | 4.61 µM (inactive) | 4.42 µM (inactive) | GI50 (XF498): 4.1 µM (inactive) |
| CC(NC(=N)N)C(=O)O (centres undefined) | > 100 µM (inactive) | – | – | – | – | – | – | – |
| ClCCC[Si]12OCCN(CCO1)CCO2 | – | – | – | > 100 µM (inactive) | > 100 µM (inactive) | > 100 µM (inactive) | > 100 µM (inactive) | – |
| Clc1cc(Cl)c2ns[s+]c2c1Cl | – | > 100 µM (inactive) | 78.3 µM (inactive) | > 100 µM (inactive) | – | > 100 µM (inactive) | > 100 µM (inactive) | GI50 (XF498): > 100 µM (inactive) |
| CSc1nc(SC)c2c(C#N)n[nH]c2n1 | – | > 100 µM (inactive) | – | – | > 100 µM (inactive) | > 100 µM (inactive) | > 100 µM (inactive) | GI50 (RXF 631): > 100 µM (inactive); GI50 (XF498): > 100 µM (inactive) |
| CCOC(=O)c1sc(N/N=C2\NC(=O)/C(=C/c3ccc([N+](=O)[O-])cc3)S2)nc1C | 15.1 µM (inactive) | – | – | – | – | – | – | – |
| COC(=O)[C@@H]1CCCCC[C@H]2C(CO)=C(C)C(=O)C12 (some centres undefined) | – | > 100 µM (inactive) | > 100 µM (inactive) | > 100 µM (inactive) | > 100 µM (inactive) | > 100 µM (inactive) | > 100 µM (inactive) | GI50 (XF498): > 100 µM (inactive) |
| COc1ccc2c(Cl)cc(NC(=S)Nc3ccccc3)nc2c1 | 14.5 µM (inactive) | – | – | – | – | – | – | – |
| Cc1ccc(Cl)c2[nH]c(-c3ccccc3)cc(=O)c12 | 11.5 µM (inactive) | – | – | – | – | – | – | – |
| CC(C)=C=CC(C)(C)NS(=O)(=O)NC(C)(C)C=C=C(C)C | 15.7 µM (inactive) | – | – | – | – | – | – | – |
| COc1ccc(/C=C2\N=C(c3ccccc3)N(Nc3nnc(NN4C(=O)/C(=C/c5ccc(OC)cc5)N=C4c4ccccc4)c4ccccc34)C2=O)cc1 | – | 53.2 µM (inactive) | 92.3 µM (inactive) | 44.4 µM (inactive) | 61 µM (inactive) | 58.7 µM (inactive) | 41.3 µM (inactive) | – |
| CCCCCCCCCCCCCC(=O)CBr | 3.94 µM (inactive) | 15.6 µM (inactive) | 14.7 µM (inactive) | 3.72 µM (inactive) | 3.9 µM (inactive) | 9.25 µM (inactive) | > 10 µM (inactive) | GI50 (RXF 631): 16.3 µM (inactive) |
| CCCCC(CCCC)=NNC(=S)SC | 20 µM (inactive) | – | – | – | – | – | – | – |
| Cn1cnc(CCc2ccccc2)n1 | – | > 100 µM (inactive) | > 100 µM (inactive) | > 100 µM (inactive) | > 100 µM (inactive) | > 100 µM (inactive) | > 100 µM (inactive) | – |
| Cc1nc2ccc(C(F)(F)F)cc2nc1NCc1ccc(Cl)c(Cl)c1 | 0.735 µM (active) | – | – | – | – | – | – | – |
